The values below come from ChEMBL document CHEMBL1154672, “Four new cytotoxic oligosaccharidic derivatives of 12-oleanene from Lysimachia heterogenea Klatt” (Bioorg Med Chem Lett, 2009).

Holding throughout (type): functional, cell-based
Assay [1] relates to A549. As to the kind of experiment: Cytotoxicity against human A549 cells after 2 hrs. Particulars: A549, 2 h.
Assay [2] has as its system A549. Kind of assay: Cytotoxicity against human A549 cells after 72 hrs. Particulars: A549, 72 h.
Assay [3] concerns A549. As to the kind of experiment: Cytotoxicity against human A549 cells after 9 hrs. Particulars: A549, 9 h.
Assay [4] concerns A549. As to the kind of experiment: Cytotoxicity against human A549 cells. Particulars: TDE = time-dependent effect.

The structures appear in SMILES notation.

With `CC1(C)CC[C@]2(CO)[C@H](O)C[C@]3(C)C(=CC[C@@H]4[C@@]5(C)CC[C@H](O[C@@H]6OC[C@H](O)[C@H](O)[C@H]6O[C@@H]6O[C@H](CO)[C@@H](O)[C@H](O)[C@H]6O[C@@H]6OC[C@@H](O)[C@H](O)[C@H]6O)[C@@](C)(CO)[C@@H]5CC[C@]43C)[C@H]2C1` [HETERGENOSIDE B], the IC50 – broadly, the concentration that inhibits the measured activity by half – in assay [1] came to 26.4 µM; in assay [2], 19.1 µM.
As for `CC1(C)CC[C@]2(CO)[C@H](O)C[C@]3(C)C(=CC[C@@H]4[C@@]5(C)CC[C@H](O[C@@H]6OC[C@H](O)[C@H](O)[C@H]6O[C@@H]6O[C@H](CO)[C@@H](O)[C@H](O)[C@H]6O)[C@@](C)(CO)[C@@H]5CC[C@]43C)[C@H]2C1` [HETEROGENOSIDE A], the 50% inhibitory concentration (IC50) was 24.5 µM in assay [2] and greater than 100 µM in assay [3]. Also, the Activity entry in assay [4] was “tde”.
